Source: BindingDB's records for doi:10.1016/j.bmc.2012.11.004 (Romanian Academy, 2013)

How the values were obtained:
[1] = molecular target: Carbonic anhydrase 2 (Homo sapiens, UniProt P00918); assay: Inhibition of human carbonic anhydrase-2
[2] = molecular target: Carbonic anhydrase 1 (Homo sapiens, UniProt P00915); assay: Inhibition of human carbonic anhydrase-1
[3] = molecular target: Carbonic anhydrase 12 (Homo sapiens, UniProt O43570); assay: Inhibition of human carbonic anhydrase-12
Carbonic anhydrase 12, sequence (O43570 whole entry): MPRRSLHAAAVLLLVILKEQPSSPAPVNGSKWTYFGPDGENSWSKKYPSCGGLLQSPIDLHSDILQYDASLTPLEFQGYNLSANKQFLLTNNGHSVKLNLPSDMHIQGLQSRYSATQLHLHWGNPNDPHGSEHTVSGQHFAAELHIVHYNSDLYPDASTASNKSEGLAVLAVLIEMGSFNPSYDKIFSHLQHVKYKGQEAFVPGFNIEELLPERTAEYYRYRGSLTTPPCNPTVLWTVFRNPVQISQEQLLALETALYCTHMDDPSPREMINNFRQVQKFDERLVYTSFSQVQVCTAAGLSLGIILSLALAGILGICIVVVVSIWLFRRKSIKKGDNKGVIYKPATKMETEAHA

Carbonic anhydrase 1, sequence (P00915 whole entry): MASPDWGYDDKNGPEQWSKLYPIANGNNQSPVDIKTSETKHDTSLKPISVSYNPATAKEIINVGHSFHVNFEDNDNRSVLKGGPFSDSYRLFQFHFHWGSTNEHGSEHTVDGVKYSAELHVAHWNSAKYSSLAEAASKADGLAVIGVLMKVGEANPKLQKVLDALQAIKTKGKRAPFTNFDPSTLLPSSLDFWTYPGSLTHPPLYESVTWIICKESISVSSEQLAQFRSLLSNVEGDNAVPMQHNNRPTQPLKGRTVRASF

Compound	Ki [1]	Ki [2]	Ki [3]
NS(=O)(=O)Nc1ccc(NC(=O)Nc2ccc(Cl)cc2)cc1	342 nM	3420 nM	27 nM
COc1ccc(C)cc1NC(=O)Nc1ccc(NS(N)(=O)=O)cc1	430 nM	–	27 nM
NS(=O)(=O)Oc1ccc(NC(=O)NC23CC4CC(CC(C4)C2)C3)cc1	430 nM	–	43 nM
COc1ccc(NC(=O)Nc2ccc(NS(N)(=O)=O)cc2)c(C)c1	342 nM	3420 nM	34 nM
Cc1cc(C)cc(NC(=O)Nc2ccc(NS(N)(=O)=O)cc2)c1	682 nM	–	–
NS(=O)(=O)Nc1ccc(NC(=O)Nc2ccccc2-c2ccccc2)cc1	858 nM	–	216 nM
CCCCOc1ccc(NC(=O)Nc2ccc(NS(N)(=O)=O)cc2)cc1	342 nM	1710 nM	–
CC(C)c1ccccc1NC(=O)Nc1ccc(NS(N)(=O)=O)cc1	682 nM	–	–
COc1ccc(OC)c(NC(=O)Nc2ccc(NS(N)(=O)=O)cc2)c1	430 nM	–	–
NS(=O)(=O)Nc1ccc(NC(=O)Nc2cccc([N+](=O)[O-])c2)cc1	430 nM	2150 nM	9 nM
CC(NC(=O)Nc1ccc(NS(N)(=O)=O)cc1)c1cccc2ccccc12 (stereo not given)	430 nM	–	27 nM
NS(=O)(=O)Nc1ccc(NC(=O)NCCc2ccccc2)cc1	171 nM	2710 nM	9 nM
NS(=O)(=O)Nc1ccc(NC(=O)NCc2ccccc2)cc1	136 nM	2710 nM	9 nM
Cc1cc(Cl)ccc1NC(=O)Nc1ccc(NS(N)(=O)=O)cc1	–	4300 nM	17 nM
NS(=O)(=O)Nc1ccc(NC(=O)NC2CCCCC2)cc1	342 nM	4300 nM	108 nM
NS(=O)(=O)Nc1ccc(NC(=O)NCc2ccco2)cc1	–	6660 nM	11 nM
